Measured values from patent publication EP0321208A1, “Improvements in or relating to avian control” (priority 1987, dated 1989).
Where two headings read alike, the source gives them in different places.

Experiments:
quail chymotrypsin = assay: ATEE assay: inhibition of quail intestinal chymotrypsin activity; format: biochemical, Japanese quail; settings: compound 1 x 10⁻⁵M; ATEE substrate; percentage inhibition of control activity ± standard deviation (n = 3); 5 min, 10 µM
Protocol: The substrate was prepared by dissolving ATEE (10 mg) in Tris-HCl buffer of pH 7.5 containing 30% (v/v) of methanol (25 ml). The quail intestine protease activity was partially purified as described above prior to testing for chymotrypsin activity. The reaction was carried out in a quartz cuvette (1 x 0.25 x 1 cm³) containing substrate (1 ml) and 100 mM Tris-HCl buffer (200 µl). The reaction was started by the addition of the partially purified intestine protease (200 µl) and followed bv the decrease in absorbance at 237 nm over a 5 minute period. All determinations were carried out in triplicate against a reagent blank.

feral pigeons [1] = assay: Four day two-choice feeding test with feral pigeons; format: in vivo; settings: four day two-choice; 0.5% w/w compound/pellet
Protocol: (§1) Feral pigeons were transferred from a communal outdoor aviary to individual cages and maintained on a 10 hour light - 14 hour dark cycle. Birds were gradually weaned away from their normal diet of maize, wheat and maple peas to a standard laboratory diet of turkey starter pellets.
(§2) The pellets were oven dried and then left to absorb atmospheric moisture. The control food was sprayed with the same volume of acetone/water mixture.
(§3) A group of 35 feral pigeons was caged individually for the trials which used eight compounds of formula (I) together with sucrose octaacetate and dimethyl anthranilate, both of which are substances which are known to be avian repellents. Each bird was subjected to treatment with each compound in a random order subject to the limitation of a latin square design. Each treatment was presented to the birds in no-choice and two-choice conditions. The no-choice phase lasted 3 days, during which a bird was presented with a single bowl containing 120 g of treated food. Each bird was weighed before and after the no-choice phase, as was the amount of food remaining. There immediately followed a two-choice phase in which the birds could choose between food treated with a given chemical and a bowl containing otherwise identical pellets without the chemical (the control treatment utilising two bowls of acetone/water treated pellets, one of which was arbitrarily selected as the control). The two-choice phase lasted four days during which food consumption was monitored daily. The position of the food bowls was alternated each day in order to overcome the confusing of food preference with position preference and ample water and grit were supplied throughout the trial.
The data obtained in the four day two-choice test is presented in Table 5 for mean consumption of treated food. […]

pigeon trypsin = assay: TAME assay: inhibition of pigeon intestinal trypsin activity; format: biochemical; settings: compound 60 µg/ml; TAME substrate; percentage inhibition of control activity ± standard deviation (n = 3); 5 min
Protocol: (§4) Dried avian intestine powder (500 mg) was extracted for 30 minutes in 1 mM HC₁ (5 ml). The extract was centrifuged at 22,000 x g for 30 minutes at 4°C. The resultant supernatant was applied to a column of Sephadex G-50, medium grade (360 mm x 15 mm) and eluted with 0.5 mM HCl at 0.7 ml/min. Fractions (3.5 ml) were collected and tested for the presence of protein by determining their absorbance at 280 nm. The proteinaceous fractions were bulked and concentrated by passing them through an ultrafiltration unit (YM 30 filter). The concentrate was collected and kept at 4°C throughout its use.
The substrate was prepared by dissolving TAME (19 mg) in a mixture of 100 mM Tris-HCl buffer of pH 7.5 (50 ml) and 5% (w/v) calcium chloride solution (2 ml). The pigeon intestine protease was partially purified as described above prior to testing for trypsin activity. The reaction was carried out in a quartz cuvette (1 x 0.25 x 1 cm³) containing substrate (3 ml) and 100 mM Tris-HCl buffer pH 7.5 (100 µl). The reaction was started by the addition of the partially purified intestine protease (100 µl) and followed by the decrease in absorbance at 247 nm over a 5 minute period.
(§5) In both the chymotrypsin and the trypsin assays a control was however carried out using the 200 µl of buffer containing no added compound.

[2] = pear buds
feral pigeons [3] = assay: Three day no-choice feeding test with feral pigeons; format: in vivo; settings: 0.5% w/w compound/pellet, ± standard deviation; for Mean weight difference: after the test compared with before; for Mean consumption: treated food
Protocol: as §1, §2, §3

bullfinch trypsin = assay: BAEE assay: inhibition of bullfinch intestinal trypsin activity; format: biochemical; settings: compound 1 x 10⁻⁵M; BAEE substrate; percentage inhibition of control activity ± standard deviation (n = 3); 7 min, 10 µM
Protocol: as §4
The substrate was prepared bv dissolving BAEE (10 mg) in a mixture of 50 mM Tris-HCl buffer of pH 7.5 (24 ml) and 5% (w/v) calcium chloride solution (1 ml). The bullfinch intestine protease activity was partially purified as described above prior to testing for trypsin activity. The reaction was carried out in a quartz cuvette (1 x 0.25 x 1 cm³) containing substrate (1 ml) and 50 mM Tris-HCl buffer (200 µl). The reaction was started by the addition of the partially purified intestine protease 1200 µl) and followed by the decrease in absorbance at 253 nm over a 7 minute period. All determinations were carried out in triplicate against a reagent blank.
as §5

SMILES	Inhibition of Activity Chymotrypsin (quail chymotrypsin)	Mean consumption of treated food (feral pigeons [1])	Inhibition of Activity (pigeon trypsin)	residues as a percentage of the initial level ([2]; 192 h)	Mean weight difference (feral pigeons [3])	Mean consumption (feral pigeons [3])	Inhibition of Activity Trypsin (bullfinch trypsin)	residues as a percentage of the initial level ([2]; 1224 h)
O=C(O)C=Cc1ccc(O)c(O)c1 [3,4-Dihydroxycinnamic acid]	85 ± 2 percentage	31.1 ± 3.4 grams	22 ± 1 percentage	8%	2.3 ± 1.1 grams	63.3 ± 3.0 grams	43 ± 3 percentage	
O=C(O)C=Cc1ccccc1 [Cinnamic Acid, cinnamic acid]	32 ± 3 percentage	25.2 ± 2.9 grams	93 ± 3 percentage	41%	2.4 ± 1.1 grams	60.4 ± 3.1 grams	85 ± 2 percentage	3%
